The source of these data is ChEMBL document CHEMBL5046271, “Design, Synthesis, and Biological Evaluation of 2-Formyl Tetrahydronaphthyridine Urea Derivatives as New Selective Covalently Reversible FGFR4 Inhibitors” (J Med Chem, 2022).

The structures appear in SMILES notation.

Experiment [1] has as its target Fibroblast growth factor receptor 2 (Homo sapiens, UniProt P21802). The experiment in a line: Inhibition of FGFR2 (unknown origin) using Tyr 04 peptide substrate measured after 2 hrs by FRET assay.
Experiment [2] addresses Fibroblast growth factor receptor 3 (Homo sapiens, UniProt P22607). Nature of the experiment: Inhibition of FGFR3 (unknown origin) using Tyr 04 peptide substrate measured after 2 hrs by FRET assay.
Experiment [3] concerns the target Fibroblast growth factor receptor 1 (Homo sapiens, UniProt P11362). The experiment in a line: Inhibition of FGFR1 (unknown origin) using Tyr 04 peptide substrate measured after 2 hrs by FRET assay.
The subject of experiment [4] is NCI-H1581. Nature of the experiment: Cytotoxicity against human NCI-H1581 cells harboring FGF19/FGFR4 assessed as inhibition of cell growth.
The test system of experiment [5] is MDA-MB-453. The experiment in a line: Cytotoxicity against human MDA-MB-453 cells harboring FGF19/FGFR4 assessed as inhibition of cell growth.
Experiment [6] concerns Huh-7. Nature of the experiment: Cytotoxicity against human Huh-7 cells harboring FGF19/FGFR4 assessed as inhibition of cell growth.
Experiment [7] has as its system Hep 3B2. The experiment in a line: Cytotoxicity against human Hep 3B2.1-7 cells harboring FGF19/FGFR4 assessed as inhibition of cell growth. Conditions: Hep3B.

Fibroblast growth factor receptor 1, sequence (P11362 whole entry): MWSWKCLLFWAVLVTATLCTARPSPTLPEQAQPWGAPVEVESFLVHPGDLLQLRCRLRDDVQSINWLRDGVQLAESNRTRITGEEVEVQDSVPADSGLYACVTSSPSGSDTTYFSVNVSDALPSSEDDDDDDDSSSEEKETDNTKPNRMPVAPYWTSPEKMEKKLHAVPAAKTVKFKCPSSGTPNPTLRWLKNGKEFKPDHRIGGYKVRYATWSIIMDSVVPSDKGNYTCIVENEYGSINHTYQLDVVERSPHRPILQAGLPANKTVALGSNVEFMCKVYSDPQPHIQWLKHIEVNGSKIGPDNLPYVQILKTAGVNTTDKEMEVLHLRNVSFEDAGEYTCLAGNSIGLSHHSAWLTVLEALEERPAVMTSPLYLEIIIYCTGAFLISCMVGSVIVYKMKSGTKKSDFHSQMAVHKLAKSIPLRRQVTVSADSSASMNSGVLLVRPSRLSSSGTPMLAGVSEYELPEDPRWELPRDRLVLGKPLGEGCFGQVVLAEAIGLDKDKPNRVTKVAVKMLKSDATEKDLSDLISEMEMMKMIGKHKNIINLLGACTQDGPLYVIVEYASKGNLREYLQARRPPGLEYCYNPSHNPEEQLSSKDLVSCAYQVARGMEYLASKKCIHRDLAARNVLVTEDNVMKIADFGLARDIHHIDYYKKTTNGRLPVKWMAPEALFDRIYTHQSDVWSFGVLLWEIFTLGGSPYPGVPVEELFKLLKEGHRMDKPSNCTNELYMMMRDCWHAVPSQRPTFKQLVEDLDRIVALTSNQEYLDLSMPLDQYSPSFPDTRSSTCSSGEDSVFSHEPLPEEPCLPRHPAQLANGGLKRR
Fibroblast growth factor receptor 2, sequence (P21802 whole entry): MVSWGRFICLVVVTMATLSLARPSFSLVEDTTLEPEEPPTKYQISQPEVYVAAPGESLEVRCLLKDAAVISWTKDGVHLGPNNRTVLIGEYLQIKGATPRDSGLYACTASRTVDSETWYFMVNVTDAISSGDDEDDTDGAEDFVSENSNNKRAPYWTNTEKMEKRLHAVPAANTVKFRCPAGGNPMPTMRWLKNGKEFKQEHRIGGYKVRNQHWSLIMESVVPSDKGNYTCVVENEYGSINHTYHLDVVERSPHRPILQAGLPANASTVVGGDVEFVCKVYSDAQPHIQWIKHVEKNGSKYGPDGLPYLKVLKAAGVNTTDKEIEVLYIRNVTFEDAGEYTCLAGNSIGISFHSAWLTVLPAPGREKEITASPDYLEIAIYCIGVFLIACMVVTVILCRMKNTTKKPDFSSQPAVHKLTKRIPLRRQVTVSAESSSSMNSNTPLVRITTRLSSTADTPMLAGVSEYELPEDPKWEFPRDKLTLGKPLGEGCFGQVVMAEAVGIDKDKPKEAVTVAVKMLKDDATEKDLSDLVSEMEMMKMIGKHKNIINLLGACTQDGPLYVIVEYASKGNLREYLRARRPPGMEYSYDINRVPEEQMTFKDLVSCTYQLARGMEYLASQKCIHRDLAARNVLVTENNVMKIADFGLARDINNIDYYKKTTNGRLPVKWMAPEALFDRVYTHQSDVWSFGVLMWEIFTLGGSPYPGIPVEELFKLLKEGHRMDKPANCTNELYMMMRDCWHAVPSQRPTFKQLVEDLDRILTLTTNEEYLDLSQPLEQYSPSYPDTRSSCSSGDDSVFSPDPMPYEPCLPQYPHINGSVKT
Fibroblast growth factor receptor 3, sequence (P22607 whole entry): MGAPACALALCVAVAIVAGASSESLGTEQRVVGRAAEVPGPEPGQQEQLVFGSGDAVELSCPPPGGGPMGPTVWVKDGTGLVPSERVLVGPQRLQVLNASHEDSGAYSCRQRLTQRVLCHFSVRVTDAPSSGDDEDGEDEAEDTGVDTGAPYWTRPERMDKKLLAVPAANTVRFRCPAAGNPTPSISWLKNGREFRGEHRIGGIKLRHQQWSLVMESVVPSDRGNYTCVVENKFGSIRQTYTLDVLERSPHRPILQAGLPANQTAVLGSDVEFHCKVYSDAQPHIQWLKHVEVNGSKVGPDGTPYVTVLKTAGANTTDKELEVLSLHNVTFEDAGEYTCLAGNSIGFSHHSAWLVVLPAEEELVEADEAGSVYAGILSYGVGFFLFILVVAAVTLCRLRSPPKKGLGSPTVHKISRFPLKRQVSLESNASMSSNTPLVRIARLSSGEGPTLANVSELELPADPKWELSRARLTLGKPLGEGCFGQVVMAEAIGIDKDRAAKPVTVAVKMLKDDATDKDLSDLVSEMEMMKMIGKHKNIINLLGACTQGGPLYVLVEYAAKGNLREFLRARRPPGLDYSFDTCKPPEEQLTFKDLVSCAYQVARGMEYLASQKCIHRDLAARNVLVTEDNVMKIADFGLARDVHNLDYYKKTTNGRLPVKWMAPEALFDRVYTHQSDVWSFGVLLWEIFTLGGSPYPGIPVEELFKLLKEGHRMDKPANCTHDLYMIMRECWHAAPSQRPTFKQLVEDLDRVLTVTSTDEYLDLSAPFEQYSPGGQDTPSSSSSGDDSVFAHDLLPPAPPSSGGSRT

As for `CC(C)Oc1cc(NC(=O)N2CCCc3ccc(C=O)nc32)ncc1C#Cc1ccncc1`, the concentration for half-maximal inhibition (IC50) in experiment [1], in experiment [2] and in experiment [3] was greater than 10 µM throughout.
Regarding `COCCNc1cc(NC(=O)N2CCCc3cc(CN4CCN(C)CC4=O)c(C=O)nc32)ncc1C#N` [FGF401], the IC50 (usually the concentration at which inhibition is half-maximal) is greater than 3 µM in experiment [4], 0.92 µM in experiment [5], 0.0089 µM in experiment [6] and 0.21 µM in experiment [7].
Take `COCCOc1cc(NC(=O)N2CCCc3ccc(C=O)nc32)ncc1C#Cc1cccnc1`: the IC50 in experiment [1], in experiment [2] and in experiment [3] was greater than 10 µM each time.
As for `CC(C)Oc1cc(NC(=O)N2CCCc3ccc(C=O)nc32)ncc1C#Cc1ccc(C#N)cc1`, the concentration for half-maximal inhibition (IC50) in experiment [1], in experiment [2] and in experiment [3] was greater than 10 µM throughout.
Turning to `COc1cccc(CCc2cnc(NC(=O)N3CCCc4ccc(C=O)nc43)cc2OC(C)C)c1`, the IC50 in experiment [1], in experiment [2] and in experiment [3] was greater than 10 µM in each case.
On to `COc1cc(CCc2cnc(NC(=O)N3CCCc4cc(CN5CCN(C)CC5=O)c(C=O)nc43)cc2OC(C)C)cc(OC)c1`, for which the half-inhibitory concentration (IC50) was greater than 10 µM in experiment [1]; greater than 3 µM in experiment [4]; greater than 10 µM in experiment [2]; 2.26 µM in experiment [5]; 0.0149 µM in experiment [6]; 1.45 µM in experiment [7]. The compound also registered a concentration for half-maximal inhibition (IC50) in experiment [3] greater than 10 µM.
As for `COC[C@H](C)Nc1cc(NC(=O)N2CCCc3ccc(C=O)nc32)ncc1C#Cc1cccnc1`, the IC50 in experiment [1], in experiment [2] and in experiment [3] was greater than 10 µM in each case.
`O=Cc1ccc2c(n1)N(C(=O)Nc1cc(NC3CC3)c(C#Cc3ccccn3)cn1)CCC2`: the IC50 in experiment [1], in experiment [2] and in experiment [3] was greater than 10 µM each time.
On to `CC(C)Oc1cc(NC(=O)N2CCCc3ccc(C=O)nc32)ncc1C#Cc1ccccc1`, for which the IC50 in experiment [1], in experiment [2] and in experiment [3] was greater than 10 µM throughout.
For `O=Cc1ccc2c(n1)N(C(=O)Nc1cc(F)c(C#Cc3cccnc3)cn1)CCC2`, the 50% inhibitory concentration (IC50) in experiment [1], in experiment [2] and in experiment [3] was greater than 10 µM in each case.
Turning to `CC(C)Oc1cc(NC(=O)N2CCCc3ccc(C=O)nc32)ncc1C#Cc1cccnc1`, the IC50 in experiment [1], in experiment [2] and in experiment [3] was greater than 10 µM throughout.
As to `COc1cc(C#Cc2cnc(NC(=O)N3CCCc4cc(CN5CCN(C)CC5=O)c(C=O)nc43)cc2OC(C)C)cc(OC)c1`, the IC50 in experiment [1] is greater than 10 µM; in experiment [4] it was greater than 3 µM; in experiment [2], greater than 10 µM; in experiment [5] it was 0.466 µM; in experiment [6], 0.0658 µM; in experiment [7] it was 1.34 µM. In experiment [3], this compound returned an IC50 greater than 10 µM.
In the case of `COCCNc1cc(NC(=O)N2CCCc3ccc(C=O)nc32)ncc1C#Cc1cccnc1`, the IC50 in experiment [1], in experiment [2] and in experiment [3] was greater than 10 µM throughout.
Regarding `CC(C)Oc1cc(NC(=O)N2CCCc3ccc(C=O)nc32)ncc1C#Cc1cnccn1`, the IC50 in experiment [1], in experiment [2] and in experiment [3] was greater than 10 µM throughout.
`CC(C)CNc1cc(NC(=O)N2CCCc3ccc(C=O)nc32)ncc1C#Cc1ccccn1`: the 50% inhibitory concentration (IC50) in experiment [1], in experiment [2] and in experiment [3] was greater than 10 µM each time.
Consider `COc1cc(OC)c(Cl)c(C#Cc2cnc(NC(=O)N3CCCc4ccc(C=O)nc43)cc2OC(C)C)c1Cl`, for which the IC50 in experiment [1], in experiment [2] and in experiment [3] was greater than 10 µM throughout.
With `COCCNc1cc(NC(=O)N2CCCc3ccc(C=O)nc32)ncc1C#Cc1ccccn1`, the half-inhibitory concentration (IC50) in experiment [1], in experiment [2] and in experiment [3] was greater than 10 µM throughout.
Take `COC[C@@H](C)Nc1cc(NC(=O)N2CCCc3ccc(C=O)nc32)ncc1C#Cc1cccnc1`: the IC50 in experiment [1], in experiment [2] and in experiment [3] was greater than 10 µM each time.
As to `C=CC(=O)Nc1cccc(C)c1Nc1ncc2cc(-c3c(Cl)c(OC)cc(OC)c3Cl)ccc2n1`, the IC50 in experiment [1] was greater than 10 µM; in experiment [4] it was greater than 43.3 µM; in experiment [2], greater than 10 µM; in experiment [5] it was 0.12 µM; in experiment [7], 0.55 µM; in experiment [3], greater than 10 µM.
Turning to `COCCNc1cc(NC(=O)N2CCCc3ccc(C=O)nc32)ncc1C#N`, the IC50 in experiment [1], in experiment [2] and in experiment [3] was greater than 10 µM in each case.
Regarding `O=Cc1ccc2c(n1)N(C(=O)Nc1cc(F)c(C#Cc3ccccn3)cn1)CCC2`, the concentration for half-maximal inhibition (IC50) in experiment [1], in experiment [2] and in experiment [3] was greater than 10 µM in each case.
Turning to `COc1cc(C#Cc2cnc(NC(=O)N3CCCc4ccc(C=O)nc43)cc2OC(C)C)cc(OC)c1`, the IC50 in experiment [1], in experiment [2] and in experiment [3] was greater than 10 µM in each case.
`CC(C)Oc1cc(NC(=O)N2CCCc3ccc(C=O)nc32)ncc1C#Cc1cncn1C`: the concentration for half-maximal inhibition (IC50) in experiment [1], in experiment [2] and in experiment [3] was greater than 10 µM in each case.
Consider `CC(C)Oc1cc(NC(=O)N2CCCc3ccc(C=O)nc32)ncc1C#Cc1cccc(C#N)c1`, for which the half-maximal inhibitory concentration (IC50) in experiment [1], in experiment [2] and in experiment [3] was greater than 10 µM throughout.
For `CC(C)Oc1cc(NC(=O)N2CCCc3ccc(C=O)nc32)ncc1C#Cc1cncnc1`, the IC50 in experiment [1], in experiment [2] and in experiment [3] was greater than 10 µM throughout.
Turning to `COc1cccc(C#Cc2cnc(NC(=O)N3CCCc4ccc(C=O)nc43)cc2OC(C)C)c1`, the IC50 in experiment [1], in experiment [2] and in experiment [3] was greater than 10 µM in each case.
Take `COCCOc1cc(NC(=O)N2CCCc3ccc(C=O)nc32)ncc1C#Cc1ccccn1`: the IC50 in experiment [1], in experiment [2] and in experiment [3] was greater than 10 µM in each case.
With `O=Cc1ccc2c(n1)N(C(=O)Nc1cc(NC3CCCC3)c(C#Cc3ccccn3)cn1)CCC2`, the IC50 in experiment [1], in experiment [2] and in experiment [3] was greater than 10 µM each time.
As for `COc1cc(OC)cc(-c2cnc(NC(=O)N3CCCc4ccc(C=O)nc43)cc2OC(C)C)c1`, the half-maximal inhibitory concentration (IC50) in experiment [1], in experiment [2] and in experiment [3] was greater than 10 µM throughout.
Turning to `CC(C)Oc1cc(NC(=O)N2CCCc3ccc(C=O)nc32)ncc1C#Cc1ccccn1`, the IC50 in experiment [1], in experiment [2] and in experiment [3] was greater than 10 µM each time.
As for `CC(C)Oc1cc(NC(=O)N2CCCc3cc(CN4CCN(C)CC4=O)c(C=O)nc32)ncc1C#Cc1ccccn1`, the concentration for half-maximal inhibition (IC50) in experiment [1] was greater than 10 µM; in experiment [4], greater than 3 µM; in experiment [2], greater than 10 µM; in experiment [5] it was 1.33 µM; in experiment [6], 0.00624 µM; in experiment [7], 0.658 µM. The same compound registered a half-inhibitory concentration (IC50) in experiment [3] greater than 10 µM.
Turning to `COc1cc(CCc2cnc(NC(=O)N3CCCc4ccc(C=O)nc43)cc2OC(C)C)cc(OC)c1`, the IC50 in experiment [1], in experiment [2] and in experiment [3] was greater than 10 µM in each case.
